Experimental findings from patent US20240092761A1, “QUINAZOLINE COMPOUNDS AND METHODS OF USE” (IAMBIC THERAPEUTICS, INC., priority 2022, published 2024) are described below.

Bounds are passed on as bounds.

One test has as its target CDK1/Cyclin B1 (Homo sapiens (Human), UniProt P06493). Description: CDK1/Cyclin B1 ADP-Glo Kinase Assay. Type of test: biochemical. The following applies: 80 uM ATP. Summed up: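 Luminescent ADP-Glo detection of ADP produced over 90 min at room temperature. Enzyme complex 4.917 nM, pre-exposed 30 min to inhibitor; ATP 80 µM (near Km 78.6 µM), substrate 0.75 µM, HEPES pH 7.5, 2% DMSO. Fractional velocity fitted to 4-parameter IC50 equation.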

Test [1] concerns the target CDK2/Cyclin E1 full length (Homo sapiens (Human), UniProt P24941). Description: CDK2/Cyclin E1 Full Length ADP-Glo Kinase Assay. Type of test: biochemical. The following applies: 20 uM ATP, read-out: CDK2/ CyclinE1 IC50. In short, it runs like this:
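ADP-Glo luminescence read-out of ADP formed by 0.328 nM wild-type full-length CDK2/Cyclin E1, 90 min at room temperature with 0.75 uM substrate and 20 uM ATP (Km 64.78 uM), after 30 min enzyme–inhibitor pre-incubation; 50 mM HEPES pH 7.5, 2% DMSO. Four-parameter IC50 fit.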

Another test addresses CDK4/Cyclin D1 (Homo sapiens (Human), UniProt P11802). In words: CDK4/Cyclin D1 CHEF Assay (AQT0258 peptide). Type of test: biochemical. The following applies: 200 uM ATP, read-out: CDK4/ CyclinD1 AQT IC50. In short, it runs like this:
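CDK4/Cyclin D1 (2.5 nM) phosphorylating 10 uM Sox-labelled peptide AQT0258 with 200 uM ATP (Km 195.2 uM), 10 mM MgCl2, 2% DMSO, 54 mM HEPES pH 7.5. Enzyme and inhibitor pre-incubated 30 min, reaction 3 hrs at 22° C.; CHEF fluorescence (ex 360/em 485 nm), IC50 from fractional velocity, 4-parameter fit.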

For another test, the target named is CDK6/Cyclin D3 (Homo sapiens (Human), UniProt Q00534). In words: CDK6/Cyclin D3 ADP-Glo Kinase Assay. In kind it is biochemical. The following applies: 100 uM ATP, read-out: CDK6/ CyclinD3 IC50. Summed up: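 Luminescent ADP-Glo read-out of ADP produced, used to fit IC50 (4-parameter equation on fractional velocity against inhibitor concentration). Kinase reaction: enzyme and inhibitor together 30 min, then ATP-containing substrate added for 90 min, all at room temperature.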
CDK6/Cyclin D3, sequence (Q00534 whole entry): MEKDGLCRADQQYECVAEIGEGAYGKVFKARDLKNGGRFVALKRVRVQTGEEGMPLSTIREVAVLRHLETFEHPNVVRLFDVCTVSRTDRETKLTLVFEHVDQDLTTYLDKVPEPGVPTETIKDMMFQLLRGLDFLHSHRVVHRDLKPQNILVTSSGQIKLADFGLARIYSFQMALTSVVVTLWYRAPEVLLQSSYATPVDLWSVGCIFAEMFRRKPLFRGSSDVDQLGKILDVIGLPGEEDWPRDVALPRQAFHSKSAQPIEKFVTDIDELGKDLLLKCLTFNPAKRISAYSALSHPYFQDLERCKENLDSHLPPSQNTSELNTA
CDK6/Cyclin D3, sequence (P30281 whole entry partner): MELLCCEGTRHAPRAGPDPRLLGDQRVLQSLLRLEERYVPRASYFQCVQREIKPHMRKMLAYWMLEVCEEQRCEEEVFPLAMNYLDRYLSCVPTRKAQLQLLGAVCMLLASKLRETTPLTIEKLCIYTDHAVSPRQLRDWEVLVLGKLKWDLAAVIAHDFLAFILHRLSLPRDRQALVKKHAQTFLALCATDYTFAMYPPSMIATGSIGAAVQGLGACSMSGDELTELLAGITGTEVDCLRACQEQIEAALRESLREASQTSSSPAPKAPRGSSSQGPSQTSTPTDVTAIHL

In another test the test system is MCF-7 cells. Description: Cell Growth Inhibition, MCF-7 (CellTiterGlo, 6 days). In kind it is cell-based. The following applies: Homo sapiens, MCF7, 144 h; MCF-7, 6-day treatment, CellTiterGlo 2.0. In short, it runs like this:
(§1)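 Compounds were run in half-log series, usually 10–10,000 nM, with 500 cells/well of OVCAR-3 or MCF-7 in RPMI plus 10% FBS. After a 6-day culture at 37 °C, viability was read by CellTiterGlo luminescence. Inhibition relative to control was fitted (four-parameter, variable slope) for IC50.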

For the next test, the system named is OVCAR-3 cells. In words: Cell Growth Inhibition, OVCAR-3 (CellTiterGlo, 6 days). Type of test: cell-based. To be noted: Homo sapiens, 144 h; OVCAR-3, 6-day treatment, CellTiterGlo 2.0. Summed up:
as §1

CDK1/Cyclin B1, sequence (P06493 whole entry): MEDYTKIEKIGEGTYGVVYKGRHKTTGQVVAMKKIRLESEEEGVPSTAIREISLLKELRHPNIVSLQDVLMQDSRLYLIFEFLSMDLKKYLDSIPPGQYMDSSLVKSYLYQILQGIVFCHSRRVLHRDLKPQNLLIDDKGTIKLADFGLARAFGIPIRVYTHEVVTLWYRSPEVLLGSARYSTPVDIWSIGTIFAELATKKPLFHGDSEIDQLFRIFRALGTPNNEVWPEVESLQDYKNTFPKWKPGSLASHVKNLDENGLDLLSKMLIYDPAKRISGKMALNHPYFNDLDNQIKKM
CDK1/Cyclin B1, sequence (P14635 whole entry partner): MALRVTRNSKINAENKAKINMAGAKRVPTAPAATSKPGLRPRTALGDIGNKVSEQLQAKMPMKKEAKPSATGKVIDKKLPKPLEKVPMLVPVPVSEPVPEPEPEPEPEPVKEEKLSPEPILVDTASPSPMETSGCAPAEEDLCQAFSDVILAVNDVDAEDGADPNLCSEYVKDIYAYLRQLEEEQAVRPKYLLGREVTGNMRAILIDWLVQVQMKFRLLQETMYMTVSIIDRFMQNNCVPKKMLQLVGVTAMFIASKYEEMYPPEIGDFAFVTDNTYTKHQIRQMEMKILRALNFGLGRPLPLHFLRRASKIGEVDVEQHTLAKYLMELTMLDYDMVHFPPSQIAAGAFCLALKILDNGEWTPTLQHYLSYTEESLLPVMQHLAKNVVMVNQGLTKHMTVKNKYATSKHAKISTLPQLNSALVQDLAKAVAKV
CDK4/Cyclin D1, sequence (P11802 whole entry): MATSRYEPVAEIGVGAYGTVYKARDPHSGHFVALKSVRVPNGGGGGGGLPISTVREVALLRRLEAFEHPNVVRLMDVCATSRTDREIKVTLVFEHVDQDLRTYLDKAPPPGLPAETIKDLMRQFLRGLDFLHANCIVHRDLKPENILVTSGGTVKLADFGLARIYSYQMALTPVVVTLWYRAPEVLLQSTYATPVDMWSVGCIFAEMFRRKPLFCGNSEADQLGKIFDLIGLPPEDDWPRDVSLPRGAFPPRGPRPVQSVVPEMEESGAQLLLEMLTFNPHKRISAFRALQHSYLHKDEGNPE
CDK4/Cyclin D1, sequence (P24385 whole entry partner): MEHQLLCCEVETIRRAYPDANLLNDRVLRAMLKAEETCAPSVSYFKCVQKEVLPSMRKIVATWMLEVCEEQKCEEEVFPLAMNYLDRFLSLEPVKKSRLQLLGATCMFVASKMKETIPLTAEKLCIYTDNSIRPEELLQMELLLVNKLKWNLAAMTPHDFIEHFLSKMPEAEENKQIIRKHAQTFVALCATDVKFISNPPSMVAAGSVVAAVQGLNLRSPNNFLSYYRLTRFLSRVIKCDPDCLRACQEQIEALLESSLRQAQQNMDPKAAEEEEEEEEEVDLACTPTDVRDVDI

As for `COCCN1CC2(C1)CN(c1cc(C(F)F)cc3cnc(NC4CCN(S(=O)(=O)C5CC5)CC4)nc13)C2` [Example 76, N-(1-(cyclopropylsulfonyl)piperidin-4-yl)-6-(difluoromethyl)-8-(6-(2-methoxyethyl)-2,6-diazaspiro[3.3]heptan-2-yl)quinazolin-2-amine], the IC50 on CDK1/Cyclin B1 was 0.5 to 2 µM; in test [1] it was < 0.2 µM; on CDK4/Cyclin D1, < 0.2 µM; at CDK6/Cyclin D3, < 0.2 µM; in the test on MCF-7 cells, 0.5 to 2 µM; with OVCAR-3 cells, 0.5 to 2 µM.

For `CS(=O)(=O)N1CCC(Nc2ncc3cc(C(F)F)cc(C4CC5(CCN(CC(F)(F)CO)C5)C4)c3n2)CC1` (stereo not drawn) [Example 106, 3-(2-(6-(difluoromethyl)-2-((1-(methylsulfonyl)piperidin-4-yl)amino)quinazolin-8-yl)-6-azaspiro[3.4]octan-6-yl)-2,2-difluoropropan-1-ol], the IC50 at CDK1/Cyclin B1 is < 0.2 µM; in test [1], < 0.2 µM; at CDK4/Cyclin D1 it was < 0.2 µM; on CDK6/Cyclin D3 it was < 0.2 µM; in the test on MCF-7 cells it was 0.5 to 2 µM; with OVCAR-3 cells it was 0.5 to 2 µM.

As for `CS(=O)(=O)N1CCC(Nc2ncc3cccc(C4CC5(CCNC5)C4)c3n2)CC1` (stereo not drawn) [Example 99, N-(1-(methylsulfonyl)piperidin-4-yl)-8-(6-azaspiro[3.4]octan-2-yl)quinazolin-2-amine], the IC50 at CDK1/Cyclin B1 is < 0.2 µM; in test [1] it was < 0.2 µM; on CDK4/Cyclin D1 it was < 0.2 µM; at CDK6/Cyclin D3 it was < 0.2 µM; in the test on MCF-7 cells, 0.5 to 2 µM; with OVCAR-3 cells it was 0.2 to 0.5 µM.

`CN1Cc2ccc(Nc3ncc4cc(C(F)F)cc(N5CCC6(CN(C)C6)C5)c4n3)cc2C1` [Example 66, 6-(difluoromethyl)-8-(2-methyl-2,6-diazaspiro[3.4]octan-6-yl)-N-(2-methylisoindolin-5-yl)quinazolin-2-amine]: the IC50 at CDK1/Cyclin B1 is 0.5 to 2 µM; in test [1], < 0.2 µM; on CDK4/Cyclin D1, < 0.2 µM; on CDK6/Cyclin D3 it was < 0.2 µM; with MCF-7 cells, 0.5 to 2 µM; in the test with OVCAR-3 cells, 0.5 to 2 µM.

As for `CS(=O)(=O)N1CCC(Nc2ncc3cc(C(F)F)cc(N4CC(F)(F)C5(CNC5)C4)c3n2)CC1` [Example 92, 8-(8,8-difluoro-2,6-diazaspiro[3.4]octan-6-yl)-6-(difluoromethyl)-N-(1-(methylsulfonyl)piperidin-4-yl)quinazolin-2-amine], the IC50 against CDK1/Cyclin B1 was < 0.2 µM; in test [1], < 0.2 µM; at CDK4/Cyclin D1, < 0.2 µM; at CDK6/Cyclin D3, < 0.2 µM; in the test with MCF-7 cells, 0.5 to 2 µM; with OVCAR-3 cells, 0.5 to 2 µM.

For the compound `CS(=O)(=O)N1CCC(Nc2ncc3cccc(C4CC(CO)(C(F)F)C4)c3n2)CC1` (stereo not drawn) [Example 121, (1-(difluoromethyl)-3-(2-((1-methanesulfonylpiperidin-4-yl)amino)quinazolin-8-yl)cyclobutyl]methanol], the IC50 is 0.2 to 0.5 µM against CDK1/Cyclin B1; < 0.2 µM in test [1]; < 0.2 µM on CDK4/Cyclin D1; < 0.2 µM on CDK6/Cyclin D3; > 2 µM with MCF-7 cells; 0.5 to 2 µM in the test with OVCAR-3 cells.

With `O=S(=O)(CC1CCC1)N1CCC(Nc2ncc3cc(C(F)F)cc(N4CCC5(CNC5)C4)c3n2)CC1` [Example 84, N-(1-((cyclobutylmethyl)sulfonyl)piperidin-4-yl)-6-(difluoromethyl)-8-(2,6-diazaspiro[3.4]octan-6-yl)quinazolin-2-amine], the IC50 at CDK1/Cyclin B1 is 0.2 to 0.5 µM; in test [1], < 0.2 µM; on CDK4/Cyclin D1 it was < 0.2 µM; on CDK6/Cyclin D3, < 0.2 µM; in the test on MCF-7 cells, 0.5 to 2 µM; with OVCAR-3 cells, 0.5 to 2 µM.

Consider `CS(=O)(=O)N1CCC(Nc2ncc3cc(C(F)F)cc(N4CC5(CCNC5)C4)c3n2)CC1` [Example 63, 6-(difluoromethyl)-N-(1-(methylsulfonyl)piperidin-4-yl)-8-(2,6-diazaspiro[3.4]octan-2-yl)quinazolin-2-amine], for which the IC50 at CDK1/Cyclin B1 was < 0.2 µM; in test [1] it was < 0.2 µM; at CDK4/Cyclin D1, < 0.2 µM; at CDK6/Cyclin D3 it was < 0.2 µM; in the test with MCF-7 cells, 0.5 to 2 µM; in the test with OVCAR-3 cells, 0.5 to 2 µM.

Turning to `CS(=O)(=O)N1CCC(Nc2ncc3cc(C(F)F)cc(N4CC5(CNCC5(F)F)C4)c3n2)CC1` [Example 115, 8-(8,8-difluoro-2,6-diazaspiro[3.4]octan-2-yl)-6-(difluoromethyl)-N-(1-(methylsulfonyl)piperidin-4-yl)quinazolin-2-amine], the IC50 is < 0.2 µM against CDK1/Cyclin B1; < 0.2 µM in test [1]; < 0.2 µM at CDK4/Cyclin D1; < 0.2 µM at CDK6/Cyclin D3; 0.5 to 2 µM in the test with MCF-7 cells; 0.5 to 2 µM in the test on OVCAR-3 cells.

In the case of `CS(=O)(=O)N1CCC(Nc2ncc3cccc(N4CC5(CNCC5(F)F)C4)c3n2)CC1` [Example 111, 8-(8,8-difluoro-2,6-diazaspiro[3.4]octan-2-yl)-N-(1-(methylsulfonyl)piperidin-4-yl)quinazolin-2-amine], the IC50 at CDK1/Cyclin B1 is 0.5 to 2 µM; in test [1], < 0.2 µM; on CDK4/Cyclin D1, < 0.2 µM; on CDK6/Cyclin D3 it was < 0.2 µM; in the test on MCF-7 cells it was 0.5 to 2 µM; in the test with OVCAR-3 cells, 0.5 to 2 µM.

As to `FC(F)c1cc(N2CC3(CCNC3)C2)c2nc(Nc3ccc4c(c3)CN(C3CC3)C4)ncc2c1` [Example 82, N-(2-cyclopropylisoindolin-5-yl)-6-(difluoromethyl)-8-(2,6-diazaspiro[3.4]octan-2-yl)quinazolin-2-amine], the IC50 against CDK1/Cyclin B1 is 0.5 to 2 µM; in test [1], < 0.2 µM; at CDK4/Cyclin D1 it was < 0.2 µM; on CDK6/Cyclin D3, < 0.2 µM; with MCF-7 cells, 0.5 to 2 µM; in the test with OVCAR-3 cells, > 2 µM.

Regarding `CC1(CS(=O)(=O)N2CCC(Nc3ncc4cc(C(F)F)cc(N5CC6(CCNC6)C5)c4n3)CC2)CC1` [Example 95, 6-(difluoromethyl)-N-(1-(((1-methylcyclopropyl)methyl)sulfonyl)piperidin-4-yl)-8-(2,6-diazaspiro[3.4]octan-2-yl)quinazolin-2-amine], the IC50 was < 0.2 µM at CDK1/Cyclin B1; < 0.2 µM in test [1]; < 0.2 µM at CDK4/Cyclin D1; < 0.2 µM on CDK6/Cyclin D3; 0.5 to 2 µM with MCF-7 cells; 0.5 to 2 µM in the test with OVCAR-3 cells.

As for `CS(=O)(=O)N1CCC(Nc2ncc3cc(C(F)(F)F)cc(C4CC(O)(C5CC5)C4)c3n2)CC1` (stereo not drawn) [Example 114, 1-cyclopropyl-3-(2-((1-(methylsulfonyl)piperidin-4-yl)amino)-6-(trifluoromethyl)quinazolin-8-yl)cyclobutan-1-ol], the IC50 is < 0.2 µM at CDK1/Cyclin B1; < 0.2 µM in test [1]; < 0.2 µM at CDK4/Cyclin D1; < 0.2 µM on CDK6/Cyclin D3; > 2 µM in the test with MCF-7 cells; > 2 µM with OVCAR-3 cells.

As for `CS(=O)(=O)N1CCC(Nc2ncc3cc(C(F)F)cc(C4CC5(CCN(CCC(F)(F)F)C5)C4)c3n2)CC1` (stereo not drawn) [Example 101, 6-(difluoromethyl)-N-(1-(methylsulfonyl)piperidin-4-yl)-8-(6-(3,3,3-trifluoropropyl)-6-azaspiro[3.4]octan-2-yl)quinazolin-2-amine], the IC50 was < 0.2 µM at CDK1/Cyclin B1; < 0.2 µM in test [1]; < 0.2 µM on CDK4/Cyclin D1; < 0.2 µM at CDK6/Cyclin D3; 0.2 to 0.5 µM with MCF-7 cells; 0.5 to 2 µM with OVCAR-3 cells.

As to `CN1Cc2cc(F)c(Nc3ncc4cc(C(F)F)cc(N5CC6(CNC6)C5)c4n3)cc2C1` [Example 61, 6-(difluoromethyl)-N-(6-fluoro-2-methylisoindolin-5-yl)-8-(2,6-diazaspiro[3.3]heptan-2-yl)quinazolin-2-amine], the IC50 at CDK1/Cyclin B1 was 0.5 to 2 µM; in test [1] it was < 0.2 µM; on CDK4/Cyclin D1 it was 0.2 to 0.5 µM; at CDK6/Cyclin D3 it was 0.5 to 2 µM; in the test on MCF-7 cells, > 2 µM; with OVCAR-3 cells, > 2 µM.

Regarding `CS(=O)(=O)N1CCC(Nc2ncc3cc(C(F)F)cc(C4CC5(CCNC5)C4)c3n2)CC1` (stereo not drawn) [Example 70, 6-(difluoromethyl)-N-(1-(methylsulfonyl)piperidin-4-yl)-8-(6-azaspiro[3.4]octan-2-yl)quinazolin-2-amine], the IC50 at CDK1/Cyclin B1 was < 0.2 µM; in test [1], < 0.2 µM; at CDK4/Cyclin D1 it was < 0.2 µM; on CDK6/Cyclin D3 it was < 0.2 µM; in the test on MCF-7 cells it was 0.2 to 0.5 µM; with OVCAR-3 cells, 0.2 to 0.5 µM.
